According to PubChem BioAssay AID248 (DTP/NCI, 2004):
Where “and” joins values, the source holds several entries; their conditions need not be identical. Equal values may be shown once. Inconclusive results and toxic doses are left out. Rule as the data show it: active = T/C of 150% or more; inactive = T/C below 125%.

System: L1210 leukemia ip in BDF1 mice, survival T/C
Test: NCI In Vivo Anticancer Drug Screen. Data for tumor model L1210 Leukemia (intraperitoneal) in B6D2F1 (BDF1) mice
Settings: endpoint: mean survival time, higher = longer survival
Outline: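 Tumor was transplanted into mice, which were then dosed with test compound or vehicle alone. Survival was recorded for each group, and the treated figure was expressed relative to the control figure.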

[1] = dose: 50.0 mg/kg/injection, schedule: Q01DX009 (ip), vehicle: saline
[2] = dose: 100.0 mg/kg/injection, schedule: Q01DX009 (ip), vehicle: saline
[3] = dose: 100.0 mg/kg/injection, schedule: Q04DX003 (ip), vehicle: saline
[4] = dose: 200.0 mg/kg/injection, schedule: Q01DX009 (ip), vehicle: saline
[5] = dose: 200.0 mg/kg/injection, schedule: Q04DX003 (ip), vehicle: saline
[6] = dose: 400.0 mg/kg/injection, schedule: Q01DX009 (ip), vehicle: saline
[7] = dose: 400.0 mg/kg/injection, schedule: Q04DX003 (ip), vehicle: saline
[8] = dose: 100.0 mg/kg/injection, schedule: Q04DX002 (ip), vehicle: saline with Tween-80
[9] = dose: 200.0 mg/kg/injection, schedule: Q04DX002 (ip), vehicle: saline with Tween-80
[10] = dose: 100.0 mg/kg/injection, schedule: Q01DX001 (ip), vehicle: Klucel (hydroxypropylcellulose) (HPC)
[11] = dose: 200.0 mg/kg/injection, schedule: Q01DX001 (ip), vehicle: Klucel (hydroxypropylcellulose) (HPC)
[12] = dose: 400.0 mg/kg/injection, schedule: Q01DX001 (ip), vehicle: Klucel (hydroxypropylcellulose) (HPC)
[13] = dose: 100.0 mg/kg/injection, schedule: Q01DX001 (ip), vehicle: carboxymethylcellulose (CMC)
[14] = dose: 200.0 mg/kg/injection, schedule: Q01DX001 (ip), vehicle: carboxymethylcellulose (CMC)
[15] = dose: 400.0 mg/kg/injection, schedule: Q01DX001 (ip), vehicle: carboxymethylcellulose (CMC)
[16] = dose: 100.0 mg/kg/injection, schedule: Q04DX003 (ip), vehicle: Klucel (hydroxypropylcellulose) (HPC)
[17] = dose: 100.0 mg/kg/injection, schedule: Q01DX009 (ip), vehicle: Klucel (hydroxypropylcellulose) (HPC)
[18] = dose: 200.0 mg/kg/injection, schedule: Q01DX009 (ip), vehicle: Klucel (hydroxypropylcellulose) (HPC)
[19] = dose: 400.0 mg/kg/injection, schedule: Q01DX009 (ip), vehicle: Klucel (hydroxypropylcellulose) (HPC)
[20] = dose: 100.0 mg/kg/injection, schedule: Q04DX002 (ip), vehicle: Klucel (hydroxypropylcellulose) (HPC)
[21] = dose: 200.0 mg/kg/injection, schedule: Q04DX002 (ip), vehicle: Klucel (hydroxypropylcellulose) (HPC)
[22] = dose: 400.0 mg/kg/injection, schedule: Q04DX002 (ip), vehicle: Klucel (hydroxypropylcellulose) (HPC)
[23] = dose: 100.0 mg/kg/injection, schedule: Q01DX001 (ip), vehicle: saline
[24] = dose: 200.0 mg/kg/injection, schedule: Q01DX001 (ip), vehicle: saline
[25] = dose: 400.0 mg/kg/injection, schedule: Q01DX001 (ip), vehicle: saline
[26] = dose: 200.0 mg/kg/injection, schedule: Q04DX003 (ip), vehicle: Klucel (hydroxypropylcellulose) (HPC)
[27] = dose: 400.0 mg/kg/injection, schedule: Q04DX003 (ip), vehicle: Klucel (hydroxypropylcellulose) (HPC)

Measured: T/C

CC1CCCC(C)N1 (stereo unspecified)
inactive: [1] 94 % of control | [2] 96 % of control and 100 % of control | [3] 110 % of control and 102 % of control | [4] 94 % of control and 106 % of control | [5] 102 % of control and 94 % of control | [6] 95 % of control | [7] 87 % of control

CCOc1nc(N)nc(N)c1-c1ccc(Cl)cc1
inactive: [8] 92 % of control | [9] 96 % of control

O=C1c2ccccc2C(=O)c2cc(/C=N/Nc3ccc([N+](=O)[O-])cc3[N+](=O)[O-])ccc21
inactive: [10] 93 % of control | [11] 90 % of control | [12] 86 % of control

O=C(NC(=S)Nc1cccc2ccc(O)cc12)c1ccc(Cl)cc1Cl
inactive: dose: 100.0 mg/kg/injection, schedule: Q01DX001 (ip), vehicle: saline with Tween-80 101 % of control | dose: 100.0 mg/kg/injection, schedule: Q01DX009 (ip), vehicle: saline with Tween-80 94 % of control and 106 % of control | [8] 103 % of control and 92 % of control | dose: 100.0 mg/kg/injection, schedule: Q04DX003 (ip), vehicle: saline with Tween-80 100 % of control | dose: 200.0 mg/kg/injection, schedule: Q01DX001 (ip), vehicle: saline with Tween-80 92 % of control | dose: 200.0 mg/kg/injection, schedule: Q01DX009 (ip), vehicle: saline with Tween-80 98 % of control and 101 % of control | [9] 95 % of control and 103 % of control | dose: 200.0 mg/kg/injection, schedule: Q04DX003 (ip), vehicle: saline with Tween-80 97 % of control | dose: 400.0 mg/kg/injection, schedule: Q01DX001 (ip), vehicle: saline with Tween-80 103 % of control | dose: 400.0 mg/kg/injection, schedule: Q01DX009 (ip), vehicle: saline with Tween-80 103 % of control and 108 % of control | dose: 400.0 mg/kg/injection, schedule: Q04DX002 (ip), vehicle: saline with Tween-80 97 % of control and 98 % of control | dose: 400.0 mg/kg/injection, schedule: Q04DX003 (ip), vehicle: saline with Tween-80 92 % of control

Cc1ccc(C2CCCCC2OS(C)(=O)=O)cc1 (stereo unspecified)
inactive: [13] 95 % of control | [14] 92 % of control | [15] 97 % of control

O=CN(Cc1cnccn1)Cc1cnccn1
inactive: [2] 96 % of control | [3] 93 % of control | [4] 98 % of control | [5] 96 % of control | [6] 94 % of control | [7] 96 % of control

COc1ccc(N=C=Nc2ccc(OC)cc2)cc1
inactive: dose: 12.0 mg/kg/injection, schedule: Q01DX009 (ip), vehicle: Klucel (hydroxypropylcellulose) (HPC) 101 % of control | dose: 25.0 mg/kg/injection, schedule: Q01DX009 (ip), vehicle: Klucel (hydroxypropylcellulose) (HPC) 108 % of control | dose: 25.0 mg/kg/injection, schedule: Q04DX003 (ip), vehicle: Klucel (hydroxypropylcellulose) (HPC) 96 % of control | dose: 50.0 mg/kg/injection, schedule: Q01DX009 (ip), vehicle: Klucel (hydroxypropylcellulose) (HPC) 90 % of control | dose: 50.0 mg/kg/injection, schedule: Q04DX003 (ip), vehicle: Klucel (hydroxypropylcellulose) (HPC) 93 % of control | [16] 98 % of control

Cc1ccc(NC(=O)NCCBr)cc1
inactive: dose: 50.0 mg/kg/injection, schedule: Q01DX001 (ip), vehicle: carboxymethylcellulose (CMC) 101 % of control | [13] 101 % of control | [14] 106 % of control | [15] 98 % of control

Cc1cccc(C)c1NC(=S)N(CCC#N)Cc1ccccc1
inactive: [17] 107 % of control | [18] 94 % of control | [19] 96 % of control

CCCCn1c(=S)sc2ccccc21
inactive: [20] 94 % of control | [21] 109 % of control | [22] 88 % of control

Cc1nn(O)ccc1=N
inactive: dose: 56.25 mg/kg/injection, schedule: Q04DX002 (ip), vehicle: saline 104 % of control | dose: 112.5 mg/kg/injection, schedule: Q04DX002 (ip), vehicle: saline 96 % of control | dose: 225.0 mg/kg/injection, schedule: Q04DX002 (ip), vehicle: saline 101 % of control

C=C(Cl)CSC(=S)N(C)C
inactive: [1] 98 % of control | [2] 98 % of control

COC(=O)C1C(=O)OC(C)(C)C1c1ccccc1 (stereo unspecified)
inactive: dose: 44.0 mg/kg/injection, schedule: Q01DX001 (ip), vehicle: saline 95 % of control | dose: 66.0 mg/kg/injection, schedule: Q01DX001 (ip), vehicle: saline 101 % of control | [23] 100 % of control | dose: 150.0 mg/kg/injection, schedule: Q01DX001 (ip), vehicle: saline 103 % of control | [24] 91 % of control | [25] 91 % of control

O=C(Nc1cccc(C(F)(F)F)c1)Oc1ccc(F)cc1
inactive: [10] 104 % of control | [17] 107 % of control and 116 % of control | [20] 92 % of control | [16] 94 % of control | [11] 109 % of control | [18] 104 % of control and 115 % of control | [21] 93 % of control and 92 % of control | [26] 99 % of control | [12] 98 % of control | [19] 104 % of control and 113 % of control | [22] 102 % of control and 108 % of control | [27] 105 % of control

CC(C)(C)OC(=O)NNC(=O)C(CSC(c1ccccc1)c1ccccc1)N1C(=O)c2ccccc2C1=O (stereo unspecified)
inactive: [17] 101 % of control | [16] 90 % of control | [18] 94 % of control | [26] 94 % of control | [19] 101 % of control | [27] 99 % of control

CC(C)c1cc(O)ccc1N(C)C (tested in a mixture with another compound)
inactive: dose: 3.2 micrograms/kg/injection, schedule: Q01DX009 (ip), vehicle: saline 97 % of control | dose: 8.0 micrograms/kg/injection, schedule: Q01DX009 (ip), vehicle: saline 90 % of control | dose: 16.0 micrograms/kg/injection, schedule: Q01DX009 (ip), vehicle: saline 87 % of control | dose: 32.0 micrograms/kg/injection, schedule: Q01DX009 (ip), vehicle: saline 90 % of control

O=C(O)C(Nc1ccc(Cc2ccc(NC(C(=O)O)c3ccccc3)cc2)cc1)c1ccccc1 (stereo unspecified)
inactive: [20] 100 % of control | [21] 103 % of control | [22] 92 % of control

CC(=O)Nc1ccc(OCCCOc2ccc([N+](=O)[O-])cc2)cc1
inactive: [16] 101 % of control | [26] 95 % of control | [27] 91 % of control

CC(=O)Nc1cccc(OCCOc2cccc([N+](=O)[O-])c2)c1
inactive: [23] 100 % of control | [24] 101 % of control | [25] 101 % of control
